Measurements as given in US20240409934A1, “FOXO1-TARGETED THERAPY FOR THE TREATMENT OF CANCER” (BOARD OF REGENTS, THE UNIVERSITY OF TEXAS SYSTEM, priority 2021, published 2024).

Tests used:
Type in all cases: cell-based
LN229 cells = test: Propidium iodide / FITC-Annexin V flow cytometry; conditions: 1 μM, 72 hours
Description: (§1) FIGS. 3A-3D: FOXO1 Inhibitor Treatment led to Apoptosis. (FIGS. 3A-3C) LN229 and BT549 cells were treated with 1 μM AS1842856 and were stained with propidium iodide and FITC-Annexin V followed by flow cytometric analyses. […] (FIG. 3D) Western blot analyses were performed with BT549 and LN229 samples that were treated with AS1842856. Both cell lines had increased caspase 3 cleavage.
(§2) FOXO1 inhibition led to apoptosis induction based on Caspase 3 cleavage and flow cytometric analyses. To clarify the impact of FOXO1 on BBC and GBM cell viability, BT549 and LN229 cells were treated with AS1842856 for 48 and 72 hours respectively.

BT549 cells [1] = test: Propidium iodide / FITC-Annexin V flow cytometry; conditions: 1 μM, 48 hours
Description: as §1, §2

[2] = test system: HCT116 colon cancer cells; test: Gene expression by qRT-PCR (TUBB reference); conditions: 48 hours
MDA-MB-468 = test: Colony formation assay (crystal violet); conditions: treated five days
HCT116 = test: Colony formation assay (crystal violet); conditions: treated five days
LN229 = test: Gene expression by qRT-PCR (TUBB reference); conditions: 1 μM for 48 hours
Description: (§3) Cell culture and drug treatments. Cell lines were obtained from ATCC (American Type Culture Collection, Manassas, VA) and grown under standard conditions (5% CO2, 10% FBS (fetal bovine serum), with 5% antifungal/antibacterial). Cell lines were tested for Mycoplasma using the MycoAlert Mycoplasma Detection Kit (Lonza, Basel Switzerland, cat: LT07-218); all experiments were done with mycoplasma negative cells. U87MG cells were propagated in MEM (Minimal Essential Medium). BT549 and DBTRG cells were propagated in RPMI (Roswell Park Memorial Institute 1640 Medium). LN18, U118MG, A172 and LN229 cells were propagated in DMEM (Dulbecco's Modified Eagle Medium). Neurosphere/cancer stem cell cultures for U87MG and BT549 cell lines were plated with 40,000 cells per mL in 3D Tumorsphere Medium XF (Sigma cat: C-28070, Burlington, MA). BT549 cancer stem cell cultures were supplemented with 1XB27 XenoFree CTS (Gibco/Thermo Fisher Waltham, MA, USA). AS1842856 was purchased from Calbiochem (Danvers, MA) and utilized at 200 nM, 500 nM and 1 μM final concentrations as indicated. AS1708727 was purchased from MedChem Express (Monmouth Junction, NJ) and was used at 0.5 μM, 1.0 µM and 2.0 μM concentrations. 5-aza-2′-deoxycytidine (5-AZA) was purchased from Millipore/Sigma (Burlington, MA) and utilized at a final concentration of 3 μM. Total RNA was prepared using the Qiagen RNeasy kit (Hilden, Germany), which was then used to generate cDNA using Superscript Reverse Transcriptase II (Invitrogen, Carlsbad, CA). Samples (cDNAs) were analyzed using (Power SYBR Green Master Mix, Applied Biosystems, Foster City, CA) and the ABI Step-One Real-time system (Carlsbad, CA). Expression levels were normalized to Beta-Tubulin, TUBB in gene expression experiments and calculated using 2-4ACT method (Livak et al., 2001). Primer sequences are detailed in Table 1.

LN18 = test: Gene expression by qRT-PCR (TUBB reference); conditions: 1 μM for 48 hours
Description: as §3

DBTRG = test: Gene expression by qRT-PCR (TUBB reference); conditions: 1 μM for 48 hours
Description: as §3

A172 = test: Gene expression by qRT-PCR (TUBB reference); conditions: 1 μM for 48 hours
Description: as §3

U87MG cells = test: Gene expression by qRT-PCR (TUBB reference)
Description: as §3

BT549 CSCs = test: Gene expression by qRT-PCR in cancer stem cells; conditions: 1 μM for 48 hours
Description: as §3, with “AS1708727 was purchased from MedChem Express (Monmouth Junction, NJ) and was used at 0.5 μM, 1.0 µM and 2.0 μM concentrations. 5-aza-2′-deoxycytidine (5-AZA) was purchased from Millipore/Sigma (Burlington, MA) and utilized at a final concentration of 3 μM. Total RNA was prepared using the Qiagen RNeasy kit (Hilden, Germany), which was then used to generate cDNA using Superscript Reverse Transcriptase II (Invitrogen, Carlsbad, CA).” left out, “Primer sequences are detailed in Table 1.” left out

U87MG CSCs = test: Gene expression by qRT-PCR in cancer stem cells; conditions: 1 μM for 48 hours
Description: as §3, with “AS1708727 was purchased from MedChem Express (Monmouth Junction, NJ) and was used at 0.5 μM, 1.0 µM and 2.0 μM concentrations. 5-aza-2′-deoxycytidine (5-AZA) was purchased from Millipore/Sigma (Burlington, MA) and utilized at a final concentration of 3 μM. Total RNA was prepared using the Qiagen RNeasy kit (Hilden, Germany), which was then used to generate cDNA using Superscript Reverse Transcriptase II (Invitrogen, Carlsbad, CA).” left out, “Primer sequences are detailed in Table 1.” left out

MDA-MB-468 cells = test: Gene expression by qRT-PCR (TUBB reference)
Description: as §3, with “μM concentrations. 5-aza-2'-deoxycytidine (5-AZA) was” for “μM concentrations. 5-aza-2′-deoxycytidine (5-AZA) was”, “Table 1. MDA-MB-468 cells were grown to log phase in DMEM with 10% FBS without antibiotics. BT549 cells were grown to log phase in DMEM with 10% FBS without antibiotics. Cells were transfected with FOXO1 esiRNA (EHU156591 Sigma, St. Louis, MO) or EGFP control esiRNA (EHUEGFP) using Lipofectamine 3000 (utilized only […] reagent, Invitrogen, Carlsbad, CA).” for “Table 1.”

BT549 cells [3] = test: Gene expression by qRT-PCR (TUBB reference)
Description: as §3, with “μM concentrations. 5-aza-2'-deoxycytidine (5-AZA) was” for “μM concentrations. 5-aza-2′-deoxycytidine (5-AZA) was”, “Table 1. MDA-MB-468 cells were grown to log phase in DMEM with 10% FBS without antibiotics. BT549 cells were grown to log phase in DMEM with 10% FBS without antibiotics. Cells were transfected with FOXO1 esiRNA (EHU156591 Sigma, St. Louis, MO) or EGFP control esiRNA (EHUEGFP) using Lipofectamine 3000 (utilized only […] reagent, Invitrogen, Carlsbad, CA).” for “Table 1.”

SMILES: CCn1cc(C(=O)O)c(=O)c2c(N)c(F)c(NC3CCCCC3)cc21 [AS1842856, 5-Amino-7-(cyclohexylamino)-1-ethyl-6-fluoro-4-oxo-1,4-dihydroquinoline-3-carboxylic acid]
- Annexin V-FITC and/or PI staining (indicators of apoptosis) (LN229 cells): positive for Annexin V-FITC and/or PI
- Annexin V-FITC and/or PI staining (indicators of apoptosis) (BT549 cells [1]): positive for Annexin V-FITC and/or PI
- FAS gene expression [2]: induced the FAS gene
- colony formation (MDA-MB-468): fewer cells with 200 nM drug treatment with further reductions using 500 nM and 1 μM drug
- colony formation (HCT116): Significantly reduced colony formation
- apoptotic genes FAS and/or BIM expression (LN229): induced apoptotic genes FAS and/or BIM
- apoptotic genes FAS and/or BIM expression (LN18): induced apoptotic genes FAS and/or BIM
- apoptotic genes FAS and/or BIM expression (DBTRG): induced apoptotic genes FAS and/or BIM
- apoptotic genes FAS and/or BIM expression (A172): induced apoptotic genes FAS and/or BIM
- FAS expression (U87MG cells): induced
- apoptotic genes FAS and/or BIM expression (U87MG cells; 1 μM for 48 hours): induced apoptotic genes FAS and/or BIM
- FAS and BIM expression (BT549 CSCs): FAS and BIM were induced
- FAS and BIM expression (U87MG CSCs): FAS and BIM were induced
- FAS and BIM gene induction, comparison of the two inhibitors (MDA-MB-468 cells): robustly caused FAS and BIM
- apoptotic genes FAS and/or BIM expression (MDA-MB-468 cells; 1 μM for 48 hours): induced apoptotic genes FAS and/or BIM
- FOXO1 expression (MDA-MB-468 cells; 48 hours of treatment): decreased FOXO1 expression
- FAS and BIM gene induction, comparison of the two inhibitors (BT549 cells [3]): robustly caused FAS and BIM
- FOXO1 gene expression (BT549 cells [3]; 1 μM for 48 hours): increased FOXO1 gene expression
- apoptotic genes FAS and/or BIM expression (BT549 cells [3]; 1 μM for 48 hours): induced apoptotic genes FAS and/or BIM
